Test results as given in US9096586B2, “Therapeutic compounds” (Gilead Sciences, Inc., priority 2012, dated 2015).
pEC50: −log10 of the molar value.

These molecules were tested on HIV-IIIb (assay: Test A: Antiviral Assays in MT4 Cells). Settings: Human immunodeficiency virus 1, IIIB, MT4, 120 h, MT-4 cells infected with HIV-IIIb (0.004 m.o.i.), 5 days incubation, CellTiter-Glo readout.
Type: cell-based
Procedure: Test A: Antiviral Assays in MT4 Cells
For the antiviral assay utilizing MT-4 cells, 0.4 μL of […] test concentration of 3-fold serially diluted compound in DMSO was added to 40 μL of cell growth medium (RPMI 1640, 10% FBS, 1% penicilline/Streptomycine, 1% L-Glutamine, 1% HEPES) in each well of 384-well assay plates (10 concentrations) in quadruplicate.
1 mL aliquots of 2×10e6 MT-4 cells are pre-infected for 1 and 3 hrs respectively, @ 37° C. with 25 uL (MT4) or of either cell growth medium (mock-infected) or a fresh 1:250 dilution of an HIV-IIIb concentrated ABI stock (0.004 m.o.i. for MT4 cells). Infected and uninfected cells are diluted in cell growth medium and 35 uL of 2000 (for MT4) cells is added to each well of the assay plates.
Assay plates were then incubated in a 37° C. incubator. After 5 days of incubation, 25 μl of 2× concentrated CellTiter-Glo™ Reagent (catalog #G7573, Promega Biosciences, Inc., Madison, Wis.) was added to each well of the assay plate. Cell lysis was carried out by incubating at room temperature for 2-3 min and then chemiluminescence was read using the Envision reader (PerkinElmer).
Accordingly, the compounds disclosed herein (e.g. compound of the invention) may be useful for treating the proliferation of the HIV virus, treating AIDS or delaying the onset of AIDS or ARC symptoms.

Row | Structure (SMILES) | pEC50
1 | Cc1cc2nc(-c3cnc4[nH]cc(C)c4c3)sc2c(-c2ccc(Cl)cc2)c1[C@](C)(OC(C)(C)C)C(=O)O [Compound 112, (S)-methyl 2-tert-butoxy-2-(7-(4-chlorophenyl)-5-methyl-2-(3-methyl-1H-pyrrolo[2,3-b]pyridin-5-yl)benzo[d]thiazol-6-yl)acetic acid] | 7.55
2 | Cc1cc2nc(N3CCC(Oc4ccccc4)C3)sc2c(-c2ccc(Cl)cc2)c1[C@H](OC(C)(C)C)C(=O)O (stereo partly drawn) [Compound 126, (2S)-2-tert-butoxy-2-(7-(4-chlorophenyl)-5-methyl-2-(3-phenoxypyrrolidin-1-yl)benzo[d]thiazol-6-yl)acetic acid] | 6.14
3 | Cc1cc2nc(-c3ccnc(-c4cnn(Cc5ccccc5)c4)c3)sc2c(-c2ccc(Cl)cc2)c1[C@H](OC(C)(C)C)C(=O)O [Compound 150] | 7.04
